Reference: patent US6737383B1, “Herbicidal oxadiazolidines” (priority 1999, dated 2004)

Key:
wild oat = experiment: Test B pre/postemergence wild oat; type: in vivo, Avena fatua
Outline: (§1)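 Response is a visual 0-to-10 score relative to untreated plants, where 0 means no effect and 10 means complete control, taken twelve to sixteen days after application. Treatments went onto soil at planting and onto foliage of 1- to 4-leaf plants, using a surfactant-containing non-phytotoxic solvent.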

morningglory = experiment: Test B pre/postemergence morningglory; type: in vivo, Ipomoea hederacea
Outline: as §1

blackgrass = experiment: Test B pre/postemergence blackgrass; type: in vivo, Alopecurus myosuroides
Outline: as §1

velvetleaf = experiment: Test B pre/postemergence velvetleaf; type: in vivo, Abutilon theophrasti
Outline: as §1

cocklebur = experiment: Test B pre/postemergence cocklebur; type: in vivo, Xanthium strumarium
Outline: as §1

sugar beet = experiment: Test B pre/postemergence sugar beet; type: in vivo, Beta vulgaris
Outline: as §1

purple nutsedge = experiment: Test B pre/postemergence purple nutsedge; type: in vivo, Cyperus rotundus
Outline: as §1

pigweed = experiment: Test B pre/postemergence pigweed; type: in vivo, Amaranthus retroflexus
Outline: as §1

soybean = experiment: Test B pre/postemergence soybean; type: in vivo, Glycine max
Outline: as §1

giant foxtail = experiment: Test B pre/postemergence giant foxtail; type: in vivo, Setaria faberii
Outline: as §1

wheat = experiment: Test B pre/postemergence wheat; type: in vivo, Triticum aestivum
Outline: as §1

rape = experiment: Test B pre/postemergence rape; type: in vivo, Brassica napus
Outline: as §1

corn = experiment: Test B pre/postemergence corn; type: in vivo, Zea mays
Outline: as §1

surinam grass = experiment: Test B pre/postemergence surinam grass; type: in vivo, Brachiaria decumbens
Outline: as §1

crabgrass = experiment: Test B pre/postemergence crabgrass; type: in vivo, Digitaria sanguinalis
Outline: as §1

bedstraw = experiment: Test B pre/postemergence bedstraw; type: in vivo, Galium aparine
Outline: as §1

[1] = Postemergence, Rate 62 g/ha, scale 0 to 10, 0 is no effect, 10 is complete control
[2] = Postemergence, Rate 500 g/ha, scale 0 (no effect) to 10 (complete control)
[3] = Rate 62 g/ha, Preemergence, scale 0 to 10
[4] = Rate 125 g/ha, Preemergence, scale 0 to 10 (0 no effect, 10 complete control)
[5] = Rate 250 g/ha, Postemergence, scale 0 to 10, 0 is no effect, 10 is complete control
[6] = Rate 500 g/ha, Preemergence, scale 0 to 10 (0 no effect, 10 complete control)
[7] = Postemergence, Rate 125 g/ha, scale of 0 to 10 where 0 is no effect and 10 is complete control
[8] = Preemergence, Rate 250 g/ha, scale 0 (no effect) to 10 (complete control)

CCOC(CC)n1c(=O)on(C(=O)N(c2ccc(F)cc2F)C(C)C)c1=O (stereo not drawn) [Compound 774]
0: Plant response rating, Wild oats (wild oat; [1]) | Wild oats plant response rating (wild oat; [2]) | Wild oats plant response rating (wild oat; [3]) | Wild oats plant response rating (wild oat; [4]) | Wild oats plant response rating (wild oat; [5]) | Wild oats plant response rating (wild oat; [6]) | Plant response rating, Morningglory (morningglory; [1]) | Morningglory plant response rating (morningglory; [7]) | Morningglory plant response rating (morningglory; [2]) | Morningglory plant response rating (morningglory; [3]) | Morningglory plant response rating (morningglory; [4]) | Morningglory plant response rating (morningglory; [5]) | Morningglory plant response rating (morningglory; [6]) | Plant response rating, Blackgrass (blackgrass; [1]) | Blackgrass plant response rating (blackgrass; [7]) | Blackgrass plant response rating (blackgrass; [2]) | Blackgrass plant response rating (blackgrass; [8]) | Blackgrass plant response rating (blackgrass; [3]) | Blackgrass plant response rating (blackgrass; [4]) | Blackgrass plant response rating (blackgrass; [5]) | Blackgrass plant response rating (blackgrass; [6]) | Plant response rating, Velvetleaf (velvetleaf; [1]) | Velvetleaf plant response rating (velvetleaf; [2]) | Velvetleaf plant response rating (velvetleaf; [3]) | Velvetleaf plant response rating (velvetleaf; [4]) | Velvetleaf plant response rating (velvetleaf; [5]) | Velvetleaf plant response rating (velvetleaf; [6]) | Plant response rating, Cocklebur (cocklebur; [1]) | Cocklebur plant response rating (cocklebur; [7]) | Cocklebur plant response rating (cocklebur; [2]) | Cocklebur plant response rating (cocklebur; [8]) | Cocklebur plant response rating (cocklebur; [3]) | Cocklebur plant response rating (cocklebur; [4]) | Cocklebur plant response rating (cocklebur; [5]) | Cocklebur plant response rating (cocklebur; [6]) | Plant response rating, Sugarbeets (sugar beet; [1]) | Sugarbeets plant response rating (sugar beet; [2]) | Sugarbeets plant response rating (sugar beet; [3]) | Sugarbeets plant response rating (sugar beet; [4]) | Sugarbeets plant response rating (sugar beet; [5]) | Sugarbeets plant response rating (sugar beet; [6]) | Plant response rating, Nutsedge (purple nutsedge; [1]) | Nutsedge plant response rating (purple nutsedge; [7]) | Nutsedge plant response rating (purple nutsedge; [2]) | Nutsedge plant response rating (purple nutsedge; [3]) | Nutsedge plant response rating (purple nutsedge; [4]) | Nutsedge plant response rating (purple nutsedge; [5]) | Nutsedge plant response rating (purple nutsedge; [6]) | Plant response rating, Redroot pigweed (pigweed; [1]) | Redroot pigweed plant response rating (pigweed; [7]) | Redroot pigweed plant response rating (pigweed; [2]) | Redroot pigweed plant response rating (pigweed; [3]) | Redroot pigweed plant response rating (pigweed; [4]) | Redroot pigweed plant response rating (pigweed; [5]) | Redroot pigweed plant response rating (pigweed; [6]) | Plant response rating, Soybean (soybean; [1]) | Soybean plant response rating (soybean; [2]) | Soybean plant response rating (soybean; [3]) | Soybean plant response rating (soybean; [4]) | Soybean plant response rating (soybean; [5]) | Soybean plant response rating (soybean; [6]) | Plant response rating, Giant foxtail (giant foxtail; [1]) | Giant foxtail plant response rating (giant foxtail; [7]) | Giant foxtail plant response rating (giant foxtail; [2]) | Giant foxtail plant response rating (giant foxtail; [8]) | Giant foxtail plant response rating (giant foxtail; [3]) | Giant foxtail plant response rating (giant foxtail; [4]) | Giant foxtail plant response rating (giant foxtail; [5]) | Giant foxtail plant response rating (giant foxtail; [6]) | Plant response rating, Wheat (wheat; [1]) | Wheat plant response rating (wheat; [2]) | Wheat plant response rating (wheat; [3]) | Wheat plant response rating (wheat; [4]) | Wheat plant response rating (wheat; [5]) | Wheat plant response rating (wheat; [6]) | Plant response rating, Rape (rape; [1]) | Rape plant response rating (rape; [7]) | Rape plant response rating (rape; [2]) | Rape plant response rating (rape; [3]) | Rape plant response rating (rape; [4]) | Rape plant response rating (rape; [5]) | Rape plant response rating (rape; [6]) | Plant response rating, Corn (corn; [1]) | Corn plant response rating (corn; [7]) | Corn plant response rating (corn; [2]) | Corn plant response rating (corn; [8]) | Corn plant response rating (corn; [3]) | Corn plant response rating (corn; [4]) | Corn plant response rating (corn; [5]) | Corn plant response rating (corn; [6]) | Plant response rating, B. signalgrass (surinam grass; [1]) | B. signalgrass plant response rating (surinam grass; [7]) | B. signalgrass plant response rating (surinam grass; [8]) | B. signalgrass plant response rating (surinam grass; Rate 62 g/ha, Preemergence, scale 0 (no effect) to 10 (complete control)) | B. signalgrass plant response rating (surinam grass; [4]) | B. signalgrass plant response rating (surinam grass; [5]) | B. signalgrass plant response rating (surinam grass; Rate 500 g/ha, Postemergence, scale 0 to 10, 0 is no effect, 10 is complete control) | B. signalgrass plant response rating (surinam grass; [6]) | Plant response rating, Crabgrass (crabgrass; [1]) | Crabgrass plant response rating (crabgrass; [7]) | Crabgrass plant response rating (crabgrass; [2]) | Crabgrass plant response rating (crabgrass; [8]) | Crabgrass plant response rating (crabgrass; [3]) | Crabgrass plant response rating (crabgrass; [4]) | Crabgrass plant response rating (crabgrass; [5]) | Crabgrass plant response rating (crabgrass; [6]) | Plant response rating, Bedstraw (bedstraw; [1]) | Bedstraw plant response rating (bedstraw; [7]) | Bedstraw plant response rating (bedstraw; [2]) | Bedstraw plant response rating (bedstraw; [8]) | Bedstraw plant response rating (bedstraw; [3]) | Bedstraw plant response rating (bedstraw; [4]) | Bedstraw plant response rating (bedstraw; [5]) | Bedstraw plant response rating (bedstraw; [6])
